# From US7238694B2, “Rifamycin imino derivatives effective against drug-resistant microbes” (Cumbre Pharmaceuticals, Inc., priority 2004, dated 2007)
# Legend:
# Type in all cases: cell-based
# [1] = test system: Streptococcus pyogenes ATCC19615; assay: MIC, microbroth dilution (NCCLS); settings: rifS strain, THY Broth, 37° C., read-out: MIC
# [2] = test system: Streptococcus pneumoniae ATCC6303; assay: MIC, microbroth dilution (NCCLS); settings: rifS strain, THY Broth with 1 mg/mL catalase, 5% CO2, 37° C., read-out: MIC
# [3] = test system: Staphylococcus aureus ATCC29213 rpoB^H418Y; assay: microbe, parasite or virus in culture; settings: Staphylococcus aureus, ATCC29213; rifR strain; Cation-Adjusted Mueller-Hinton Broth, 37° C.; read-out: MIC
# [4] = test system: Staphylococcus aureus MT1222 gyrA^A116E grlB^S80F; assay: microbe, parasite or virus in culture; settings: cipR strain, Cation-Adjusted Mueller-Hinton Broth, 37° C., read-out: MIC
# [5] = test system: Staphylococcus epidermidis ATCC12228; assay: MIC, microbroth dilution (NCCLS); settings: rifS strain, Cation-Adjusted Mueller-Hinton Broth, 37° C., read-out: MIC
# [6] = test system: Staphylococcus aureus ATCC29213; assay: MIC, microbroth dilution (NCCLS); settings: rifS strain, Cation-Adjusted Mueller-Hinton Broth, 37° C., read-out: MIC
# [7] = test system: Haemophilus influenzae ATCC10211; assay: MIC, microbroth dilution (NCCLS); settings: rifS strain, BHI Broth with NAD and hematin, 37° C., read-out: MIC
SMILES,MIC [1] [µg/mL],MIC [2] [µg/mL],MIC [3] [µg/mL],MIC [4] [µg/mL],MIC [5] [µg/mL],MIC [6] [µg/mL],MIC [7] [µg/mL]
"COc1c(N2CCCC(N/N=C/c3c4c(O)c5c(O)c(C)c6c(c5c3O)C(=O)[C@@](C)(O/C=C/[C@H](OC)[C@@H](C)[C@@H](OC(C)=O)[C@H](C)[C@H](O)[C@H](C)[C@@H](O)[C@@H](C)/C=C/C=C(/C)C(=O)N4)O6)C2)c(F)cc2c(=O)c(C(=O)O)cn(C3CC3)c12 (mixture of isomers) [Example 24, (R/S)-3-[1-(3-Carboxy-1-cyclopropyl-6-fluoro-8-methoxy-4-oxo-1,4-dihydroquinolin-7-yl)-piperidin-3-hydrazino-methylenyl]-rifamycin SV]",0.008 to 0.03,0.008 to 0.06,0.06 to 16,0.008 to 0.125,0.008 to 0.1,0.008 to 1,0.125 to 4
"COc1c(N2CCC(NC3CCN(/N=C/c4c5c(O)c6c(O)c(C)c7c(c6c4O)C(=O)[C@@](C)(O/C=C/[C@H](OC)[C@@H](C)[C@@H](OC(C)=O)[C@H](C)[C@H](O)[C@H](C)[C@@H](O)[C@@H](C)/C=C/C=C(/C)C(=O)N5)O7)CC3)C2)c(F)cc2c(=O)c(C(=O)O)cn(C3CC3)c12 (mixture of isomers) [Example 26, (R/S)-3-{4-[1-(3-Carboxy-1-cyclopropyl-6-fluoro-8-methoxy-4-oxo-1,4-dihydroquinolin-7-yl)-pyrrolidin-3-ylamino]-piperidin-1-yl-aminomethylenyl}-rifamycin SV]",0.008 to 0.03,0.008 to 0.06,0.06 to 16,0.008 to 0.125,0.008 to 0.1,0.008 to 1,0.125 to 4
"COc1c(N2CCN(C3CCN(/N=C/c4c5c(O)c6c(O)c(C)c7c(c6c4O)C(=O)[C@@](C)(O/C=C/[C@H](OC)[C@@H](C)[C@@H](OC(C)=O)[C@H](C)[C@H](O)[C@H](C)[C@@H](O)[C@@H](C)/C=C/C=C(/C)C(=O)N5)O7)C3)CC2)c(F)cc2c(=O)c(C(=O)O)cn(C3CC3)c12 (mixture of isomers) [Example 28, (R/S)-3-{3-[1-(3-carboxy-1-cyclopropyl-6-fluoro-8-methoxy-4-oxo-1,4-dihydroquinolin-7-yl)-piperazin-4-yl]-pyrrolidinyl-1-hydrazino-methylenyl}-rifamycin SV]",0.008 to 0.03,0.008 to 0.06,0.06 to 16,0.008 to 0.125,0.008 to 0.1,0.008 to 1,0.125 to 4
"COc1c(N2CCC(N(Cc3ccccn3)/N=C/c3c4c(O)c5c(O)c(C)c6c(c5c3O)C(=O)[C@@](C)(O/C=C/[C@H](OC)[C@@H](C)[C@@H](OC(C)=O)[C@H](C)[C@H](O)[C@H](C)[C@@H](O)[C@@H](C)/C=C/C=C(/C)C(=O)N4)O6)C2)c(F)cc2c(=O)c(C(=O)O)cn(C3CC3)c12 (mixture of isomers) [Example 30, (R/S)-3-[1-(3-carboxy-1-cyclopropyl-6-fluoro-8-methoxy-4-oxo-1,4-dihydroquinolin-7-yl)-pyrrolidinyl-3-(pyridin-2-ylmethyl)hydrazino-methylenyl]-rifamycin SV]",0.008 to 0.03,0.008 to 0.06,0.06 to 16,0.008 to 0.125,0.008 to 0.1,0.008 to 1,0.125 to 4
"CO[C@H]1/C=C/O[C@@]2(C)Oc3c(C)c(O)c4c(O)c(c(/C=N/N5CCC(C(=O)NC6CCN(c7c(F)cc8c(=O)c(C(=O)O)cn(C9CC9)c8c7Cl)C6)CC5)c(O)c4c3C2=O)NC(=O)/C(C)=C\C=C\[C@H](C)[C@H](O)[C@@H](C)[C@@H](O)[C@@H](C)[C@H](OC(C)=O)[C@@H]1C (mixture of isomers) [Example 31, (R/S)-3-{4-[1-(3-Carboxy-8-chloro-1-cyclopropyl-6-fluoro-4-oxo-1,4-dihydroquinolin-7-yl)-pyrrolidin-3-ylcarbamoyl]-piperidin-1-yl-aminomethylenyl}-rifamycin SV]",0.008 to 0.03,0.008 to 0.06,0.06 to 16,0.008 to 0.125,0.008 to 0.1,0.008 to 1,0.125 to 4
"COc1c(N2CCC(N3CCN(/N=C/c4c5c(O)c6c(O)c(C)c7c(c6c4O)C(=O)[C@@](C)(O/C=C/[C@H](OC)[C@@H](C)[C@@H](OC(C)=O)[C@H](C)[C@H](O)[C@H](C)[C@@H](O)[C@@H](C)/C=C/C=C(/C)C(=O)N5)O7)CC3)C2)c(F)cc2c(=O)c(C(=O)O)cn(C3CC3)c12 (mixture of isomers) [Example 33, (R/S)-3-{4-[1-(3-Carboxy-1-cyclopropyl-6-fluoro-8-methoxyoxo-1,4-dihydroquinolin-7-yl)-pyrrolidin-3-yl]-piperazin-1-yl-aminomethylenyl}-rifamycin SV]",0.008 to 0.03,0.008 to 0.06,0.06 to 16,0.008 to 0.125,0.008 to 0.1,0.008 to 1,0.125 to 4
CO[C@H]1/C=C/O[C@@]2(C)Oc3c(C)c(O)c4c(O)c(c(/C=N/N5CCN(C6CCN(c7nc8c(cc7F)c(=O)c(C(=O)O)cn8-c7ccc(F)cc7F)C6)CC5)c(O)c4c3C2=O)NC(=O)/C(C)=C\C=C\[C@H](C)[C@H](O)[C@@H](C)[C@@H](O)[C@@H](C)[C@H](OC(C)=O)[C@@H]1C (mixture of isomers) [Example 34],0.008 to 0.03,0.008 to 0.06,0.06 to 16,0.008 to 0.125,0.008 to 0.1,0.008 to 1,0.125 to 4
"CO[C@H]1/C=C/O[C@@]2(C)Oc3c(C)c(O)c4c(O)c(c(/C=N/N5CCN(C(=O)C6CCN(c7nc8c(cc7F)c(=O)c(C(=O)O)cn8-c7ccc(F)cc7F)C6)CC5)c(O)c4c3C2=O)NC(=O)/C(C)=C\C=C\[C@H](C)[C@H](O)[C@@H](C)[C@@H](O)[C@@H](C)[C@H](OC(C)=O)[C@@H]1C (mixture of isomers) [Example 36, (R/S)-3-{4-[1-(3-Carboxy-1-(2,4-difluoro-phenyl)-6-fluoro-4-oxo-1,4-dihydro-[1,8]naphthyridine-7-yl)-pyrrolidin-3-yl-carbonyl]-piperazin-1-yl-aminomethylenyl}-rifamycin SV]",0.008 to 0.03,0.008 to 0.06,0.06 to 16,0.008 to 0.125,0.008 to 0.1,0.008 to 1,0.125 to 4
"COc1c(N2CCC(C3(N4CCN(/N=C/c5c6c(O)c7c(O)c(C)c8c(c7c5O)C(=O)[C@@](C)(O/C=C/[C@H](OC)[C@@H](C)[C@@H](OC(C)=O)[C@H](C)[C@H](O)[C@H](C)[C@@H](O)[C@@H](C)/C=C/C=C(/C)C(=O)N6)O8)CC4)CC3)C2)c(F)cc2c(=O)c(C(=O)O)cn(C3CC3)c12 (mixture of isomers) [Example 37, (R/S)-3-{4-[1-(3-Carboxy-1-cyclopropyl-6-fluoro-8-methoxy-4-oxo-1,4-dihydroquinoline-7-yl)-pyrrolidin-3-yl-cyclopropyl]-piperazin-1-yl-aminomethylenyl}-rifamycin SV]",0.008 to 0.03,0.008 to 0.06,0.06 to 16,0.008 to 0.125,0.008 to 0.1,0.008 to 1,0.125 to 4
"CO[C@H]1/C=C/O[C@@]2(C)Oc3c(C)c(O)c4c(O)c(c(/C=N/NCC5CCN(c6c(F)cc7c(=O)c(C(=O)O)cn(C8CC8)c7c6Cl)C5)c(O)c4c3C2=O)NC(=O)/C(C)=C\C=C\[C@H](C)[C@H](O)[C@@H](C)[C@@H](O)[C@@H](C)[C@H](OC(C)=O)[C@@H]1C (mixture of isomers) [Example 39, (R/S)-3-[1-(3-Carboxy-8-chloro-1-cyclopropyl-6-fluoro-4-oxo-1,4-dihydroquinolin-7-yl)-pyrrolidin-3-yl-methyl-hydrazino-methylenyl]-rifamycin SV]",0.008 to 0.03,0.008 to 0.06,0.06 to 16,0.008 to 0.125,0.008 to 0.1,0.008 to 1,0.125 to 4
"CO[C@H]1/C=C/O[C@@]2(C)Oc3c(C)c(O)c4c(O)c(c(/C=N/N(C)C5CCN(c6nc7c(cc6F)c(=O)c(C(=O)O)cn7-c6ccc(F)cc6F)C5)c(O)c4c3C2=O)NC(=O)/C(C)=C\C=C\[C@H](C)[C@H](O)[C@@H](C)[C@@H](O)[C@@H](C)[C@H](OC(C)=O)[C@@H]1C (mixture of isomers) [Example 43, (R/S)-3-[1-[3-Carboxy-1-(2,4-difluoro-phenyl)-6-fluoro-4-oxo-1,4-dihydro-[1,8]naphthyridin-7-yl]-pyrrolidinyl-3-N′-methylhydrazinomethylenyl]rifamycin SV]",0.008 to 0.03,0.008 to 0.06,0.06 to 16,0.008 to 0.125,0.008 to 0.1,0.008 to 1,0.125 to 4
"CO[C@H]1/C=C/O[C@@]2(C)Oc3c(C)c(O)c4c(O)c(c(/C=N/N5CCN(c6c(F)cc7c(=O)c(C(=O)O)cn8c7c6OCC8C)CC5C)c(O)c4c3C2=O)NC(=O)/C(C)=C\C=C\[C@H](C)[C@H](O)[C@@H](C)[C@@H](O)[C@@H](C)[C@H](OC(C)=O)[C@@H]1C (mixture of isomers) [Example 44, (R/S)-3-[9-fluoro-3-methyl-10-(3-methyl-piperazin-1-hydrazinomethylenyl)-7-oxo-7H-pyrido[1,2,3-de]-1,4-benzoxazine-6-carboxylic acid]rifamycin SV]",0.008 to 0.03,0.008 to 0.06,0.06 to 16,0.008 to 0.125,0.008 to 0.1,0.008 to 1,0.125 to 4
